The text below walks through data of patent US20090305993A1, “METHODS AND COMPOSITION FOR THE TREATMENT OF GASTROINTESTINAL DISORDERS” (IRONWOOD PHARMACEUTICALS, INC., priority 2006, published 2009).

Read-outs that look alike come from different tables or passages of the source. Where a SMILES comes first, the peptide text is derived from it. Bridges are numbered along the chain shown (N, C = ends).

Data set [1] has as its system CD rats. As to the kind of experiment: rat gastrointestinal transit assay. Type of data set: in vivo. The procedure: The gastrointestinal transit assay was also performed in male and female CD rats (Charles River; Wilmington, Mass.) weighing between 136-191 g with an average weight of 167.6 g. The assay was performed as described above for mice except an average of 5-8 animals were used for each test group and test peptide and 5% activated carbon were administered simultaneously (versus 7 minutes apart). In addition, the animals were sacrificed 10 minutes after the administration of peptide and test compound.

Data set [2] addresses intestinal epithelial cells from wild-type and GC-C KO mice (Mus musculus, UniProt Q3UWA6). As to conditions: 125I-SEQ ID NO:3 alone or with excess unlabeled SEQ ID NO:3, FIG. 9b.
Protocol: Mouse intestinal epithelial cells were prepared identical to that above as for rat intestinal epithelial cells except the cells were homogenized with an Omni homogenizer for 20 seconds on the maximum setting to make a suspension of cells. A competition binding assay was performed identical to that described above between ^125I labeled SEQ ID NO:3 and unlabeled SEQ ID NO:3 (competitor).
Data set [3] relates to WT and GC-C KO mice. The data set can be described thus: colorectal distension under basal conditions in WT and GC-C KO mice. Type of data set: in vivo, mouse. Particulars: oral 0.01 and 0.3 μg/kg. The procedure: TNBS induced visceral hypersensitivity was assessed in WT and GC-C KO mice. Two groups (WT and GC-C KO) of male mice (22-25 g) were surgically prepared for electromyographic (EMG) recordings. Three electrodes were implanted in the striated muscles of the abdomen for EMG recording of abdominal contractions. Colorectal distension (CRD) was performed with a balloon inflated by 10s steps of 0.02 ml from 0 to 0.12 ml. Under basal conditions mice were submitted to control CRD (time 0) followed by oral administration of SEQ ID NO:3 (0.01 and 0.3 μg/kg) or vehicle only (distilled water, 1 ml) at 3 hours. One hour post dosing the CRD procedure was repeated. Abdominal EMG contractile response to colorectal distension in basal conditions in both WT and GC-C KO mice (12-14 mice per group) was determined in the absence of vehicle and SEQ ID NO:3, and the mean+/−standard error of the mean (SEM) is graphically depicted in FIG. 7c.

Data set [4] has as its target T1, GC-C receptors on the cell surface of human colonic cells (T84 cells) (Homo sapiens, UniProt P25092).
T1 construct: host or cells: T84 cells (whole cells in suspension)
The data set can be described thus: competitive radioligand-binding assay on T84 cells. The procedure: The radiolabeled tracer used in these experiments was ^125I-SEQ ID NO:7. To determine binding constants, competitive inhibition of binding was used. T84 cells were cultured in T-150 plastic flasks in DMEM and Ham's F-12 medium containing 5% fetal bovine serum. Monolayers at 60-70% confluency (approximately 10^7 cells) were collected by gentle scraping followed by centrifugation, and washed twice in 50 mL of phosphate-buffered saline (PBS). The cells were resuspended in 1 mL DMEM containing 20 mM […] (Hepes), pH 7.0 and 0.5% bovine serum albumin (BSA). T84 cells were incubated with a constant amount of ^125I-SEQ ID NO:7 containing various concentrations of cold competitor. Free ^125I-SEQ ID NO:7 was separated from bound tracer by rapid suction filtration. The binding reactions were carried out in 1.5 mL microfuge tubes in 0.24 mL of DMEM/20 mM Hepes pH 7.0/0.5% BSA containing: 2.5×10^5 T84 cells (0.25 mg protein), 200,000 cpm ^125I-SEQ ID NO:7 (41 fmol, […]), and 0.01 to 1,000 nM competitor. Binding assays at pH 5.0 were done in DMEM/20 mM 2-(N-morpholino) ethanesulfonic acid (Mes), pH 5.0. Binding assays in pH 8.0 were done in DMEM/20 mM Hepes/50 mM sodium bicarbonate pH 8.0. One sample contained no competitor (B0) and another contained no cells. After incubation at 37° C. for 1 h, the reaction mixtures were applied to Whatman GF/B glass-fiber filters by suction filtration. The filters were then rinsed with 10 mL ice-cold PBS buffer, inserted into plastic tubes, and added to 2 mL scintillation fluid. Radioactivity was measured in a LS 6500 liquid scintillation counter (Beckman-Coulter). The percent bound in each sample is calculated by the equation:
% B/B0=(sample cpm−no cells cpm)×100/(B0 cpm−no cells cpm)
Competitive radioligand-binding curves were generated using the Graphpad PRISM™ computer program. […] The apparent dissociation equilibrium constant (Ki) for each competitor was obtained from the IC50 values and the previously reported estimate of the dissociation constant for the radioligand, Kd≈15 nM (Hamra et al. 1997 PNAS 2705-10) and the method of Cheng and Prusoff 1973 Biochem Pharmacol 22:3099-108. Using a two site model, high and low affinity-binding sites were identified on T84 cells (Ki1 and Ki2) for all the test agents. At pH 7.0. for SEQ ID NO:3 Ki1 ranged from 0.89-1.23 nM and Ki2 ranged from 88.9-156 nM.

Data set [5] is described as follows: oral bioavailability in rats, LCMS. Format: in vivo, rat. As to conditions: SEQ ID NO:3 10 mg/kg. The procedure: Similarly, oral bioavailability was determined in rats using LCMS methodology. Rat plasma samples containing SEQ ID NO:3 and/or SEQ ID NO:6 were extracted using a Waters Oasis MAX 96 well solid phase extraction (SPE) plate. A 200 μL volume of rat plasma was mixed with 200 μL of ^13C9, ^15N—SEQ ID NO:3 in the well of a prepared SPE plate. The samples were drawn through the stationary phase with 15 mm Hg vacuum. All samples were rinsed with 200 μL of 2% ammonium hydroxide in water followed by 200 μL of 20% methanol in water. The samples were eluted with consecutive 100 μL volumes of […] formic acid/water/methanol and 100 μL 5/15/80 formic acid/water/methanol. The samples were dried under nitrogen and resuspended in 100 μL of 20% methanol in water. Samples were analyzed by a Waters Quattro Micro mass spectrometer coupled to a Waters 1525 binary pump with a Waters 2777 autosampler. A 40 μL volume of each sample was injected onto a Thermo Hypersil GOLD C18 column (2.1×50 mm, 5 um). SEQ ID NO:3 and SEQ ID NO:6 were eluted by a gradient over 3 minutes with acetonitrile and water containing 0.05% trifluoroacetic acid. The Quattro Micro mass spectrometer was run in multiple reaction monitoring (MRM) mode using the mass transitions of 764>182 and 682>136 for SEQ ID NO:3 and SEQ ID NO:6 respectively. Using this methodology, SEQ ID NO:3 was dosed orally and by IV to rats at 10 mg/kg. […] In this experiment, the limit of detection (LOD) for SEQ ID NO:6 was 0.78 nM. SEQ ID NO:6 was detected at all time points for the intravenous dose and was not detected beyond 240 min for the oral dose. For non-detected values, the LOD was used as an upper estimate of the concentration of SEQ ID NO:6. The calculated value for AUCp.o., (0-6h) was <1308 nM-min and AUCi.v.,(0-6h) was 1,590,000 nM-min. The 6 h bioavailability of SEQ ID NO:6 determined by circulating plasma levels was 0.08%

T1 sequence (P25092 24-1073): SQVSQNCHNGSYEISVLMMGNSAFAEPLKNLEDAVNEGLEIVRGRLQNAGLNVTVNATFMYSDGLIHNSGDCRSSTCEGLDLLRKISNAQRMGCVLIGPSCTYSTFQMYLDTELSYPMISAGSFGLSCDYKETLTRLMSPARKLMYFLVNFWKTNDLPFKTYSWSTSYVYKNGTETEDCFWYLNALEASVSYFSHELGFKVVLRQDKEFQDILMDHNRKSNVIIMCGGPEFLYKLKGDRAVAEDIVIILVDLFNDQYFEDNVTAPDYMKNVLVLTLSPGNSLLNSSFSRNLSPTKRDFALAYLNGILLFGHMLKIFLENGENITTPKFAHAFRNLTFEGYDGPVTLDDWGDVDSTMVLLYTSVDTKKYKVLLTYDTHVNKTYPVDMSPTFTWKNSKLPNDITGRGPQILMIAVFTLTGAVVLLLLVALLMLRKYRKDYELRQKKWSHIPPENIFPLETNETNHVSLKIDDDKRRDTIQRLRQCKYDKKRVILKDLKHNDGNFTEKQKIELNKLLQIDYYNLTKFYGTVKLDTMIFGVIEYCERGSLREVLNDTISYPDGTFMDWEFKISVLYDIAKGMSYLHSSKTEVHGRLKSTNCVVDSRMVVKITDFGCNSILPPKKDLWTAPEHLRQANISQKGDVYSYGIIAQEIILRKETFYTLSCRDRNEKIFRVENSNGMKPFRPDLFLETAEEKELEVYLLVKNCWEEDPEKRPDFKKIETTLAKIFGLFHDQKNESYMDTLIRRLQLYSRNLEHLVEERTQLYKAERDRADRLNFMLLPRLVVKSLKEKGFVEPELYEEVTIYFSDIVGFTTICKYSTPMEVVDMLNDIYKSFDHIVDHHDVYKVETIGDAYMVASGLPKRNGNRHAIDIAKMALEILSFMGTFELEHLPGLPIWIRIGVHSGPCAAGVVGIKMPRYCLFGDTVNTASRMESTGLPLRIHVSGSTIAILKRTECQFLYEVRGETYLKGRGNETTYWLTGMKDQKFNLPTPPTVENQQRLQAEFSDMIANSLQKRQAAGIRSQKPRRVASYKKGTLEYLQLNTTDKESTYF
intestinal epithelial cells from wild-type and GC-C KO mice, sequence (Q3UWA6 20-1072): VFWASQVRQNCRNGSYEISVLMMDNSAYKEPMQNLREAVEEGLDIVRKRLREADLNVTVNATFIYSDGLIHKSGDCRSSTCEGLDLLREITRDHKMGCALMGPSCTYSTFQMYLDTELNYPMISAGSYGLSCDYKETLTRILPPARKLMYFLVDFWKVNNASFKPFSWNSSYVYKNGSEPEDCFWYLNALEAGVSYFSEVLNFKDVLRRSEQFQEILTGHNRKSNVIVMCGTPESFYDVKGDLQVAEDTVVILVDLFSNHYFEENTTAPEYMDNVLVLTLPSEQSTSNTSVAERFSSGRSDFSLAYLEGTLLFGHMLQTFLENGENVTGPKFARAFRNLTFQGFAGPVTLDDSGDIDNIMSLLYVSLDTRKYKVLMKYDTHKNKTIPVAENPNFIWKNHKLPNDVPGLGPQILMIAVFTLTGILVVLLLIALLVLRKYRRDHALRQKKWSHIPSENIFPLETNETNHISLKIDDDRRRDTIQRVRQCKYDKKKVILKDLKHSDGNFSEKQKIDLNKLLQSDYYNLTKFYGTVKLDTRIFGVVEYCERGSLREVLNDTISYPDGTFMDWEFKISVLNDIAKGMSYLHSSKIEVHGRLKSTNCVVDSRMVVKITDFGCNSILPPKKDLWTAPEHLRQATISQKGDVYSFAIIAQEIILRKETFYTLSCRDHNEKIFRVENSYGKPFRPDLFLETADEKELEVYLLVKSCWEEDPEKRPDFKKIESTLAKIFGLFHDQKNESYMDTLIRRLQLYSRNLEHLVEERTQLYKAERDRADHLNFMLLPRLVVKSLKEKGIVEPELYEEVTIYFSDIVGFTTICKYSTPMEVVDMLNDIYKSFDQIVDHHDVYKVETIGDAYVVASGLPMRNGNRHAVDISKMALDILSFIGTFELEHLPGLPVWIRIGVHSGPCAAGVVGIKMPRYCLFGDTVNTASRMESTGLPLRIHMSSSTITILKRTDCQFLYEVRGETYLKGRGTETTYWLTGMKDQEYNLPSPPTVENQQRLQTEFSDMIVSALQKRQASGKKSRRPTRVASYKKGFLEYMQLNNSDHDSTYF

`C[C@@H]1NC(=O)[C@@H]2CCCN2C(=O)[C@H](CC(N)=O)NC(=O)[C@@H]2CSSC[C@H](N)C(=O)N[C@H]3CSSC[C@H](NC1=O)C(=O)N[C@@H]([C@@H](C)O)C(=O)NCC(=O)N[C@H](C(=O)N[C@@H](Cc1ccc(O)cc1)C(=O)O)CSSC[C@H](NC(=O)[C@H](Cc1ccc(O)cc1)NC(=O)[C@H](CCC(=O)O)NC3=O)C(=O)N2` [SEQ ID NO:3] (H-CCEYCCNPACTGCY-OH; disulfide 1-6, 2-10, 5-13; N-terminus and C-terminus assumed): the “intestinal transit, dose dependence” value in data set [1] (female rats, FIG. 4e) is “increases in a dose dependent manner”. For the same compound, the intestinal transit entry in data set [1] (rat GIT assay, FIG. 4d) is reported as “intestinal transit increases”. Further, the “binding to intestinal epithelial cells, GC-C KO compared to wild-type mice” value in data set [2] was “reduction in SEQ ID NO:3 binding”. In addition, the “EMG response to colorectal distension” value in data set [3] is “decreased the EMG response to colorectal distension”. The “effect of pH on binding to the high affinity site, Ki1” value in data set [4] (pH 5, 7 and 8) is given as “not affected by pH”. For the same compound, the Ki stood at 1.38 nM in data set [4] (pH 5.0, T84 cells, read-out: Ki1 (high affinity site)); 17 nM in data set [4] (pH 5.0, T84 cells, read-out: Ki2 (low affinity site)); 0.6 nM in data set [4] (pH 8.0, T84 cells, read-out: Ki1 (high affinity site)); 94.4 nM in data set [4] (pH 8.0, T84 cells, read-out: Ki2 (low affinity site)). Further, in data set [5], the “6 h bioavailability when AUC values for SEQ ID NO:6 are included” value turned out to be 0.13%.
